Among the test systems are U-251; EKVX; SF-539; OVCAR-3; CCRF-CEM; DU-145; HCT-15; MDA-N; Hs-578T; NCI-H522; UACC-62; NCI-H226; MOLT-4; KM12; OVCAR-5; MDA-MB-231; CAKI-1; LOX IMVI; RPMI-8226.
Assay in all cases: growth of human tumour cells (NCI), 48 h

Values joined by “and” are separate entries in the source; they are usually repeats but may differ in a detail not shown here. Identical values can stand only once.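 48-hour exposure; five concentrations; linearly interpolated endpoints. Abbreviation: GI50, concentration required for 50% inhibition of growth.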 Active and inactive are the calls of the source. No stated cut-off is given here; in the data, active = GI50 up to about 1.1 µM and inactive = higher.

`CC(C)c1ccc2nc3ccc(C(=O)NCCN(C)C)cn3c(=O)c2c1`: the GI50 with U-251 was 19.9 µM (inactive); with EKVX, 16.4 µM (inactive); in the test on SF-539, 14.9 µM (inactive); in the test on OVCAR-3, 29.2 µM (inactive); with CCRF-CEM, 14.9 µM (inactive); in the test on DU-145, 34.7 µM (inactive). Also, the GI50 with HCT-15 is 13.8 µM; in the test with MDA-N, 16.4 µM (inactive); with Hs-578T it was 15.2 µM (inactive); in the test on NCI-H522, 15.3 µM (inactive); in the test on UACC-62 it was 16.6 µM (inactive); with NCI-H226 it was 18 µM (inactive). Also, the GI50 was 15 µM (inactive) in the test with MOLT-4; 17.3 µM (inactive) in the test with KM12; 14.7 µM (inactive) with OVCAR-5; 15 µM (inactive) in the test on MDA-MB-231; 23.1 µM (inactive) in the test on CAKI-1.

Take `O=C(O)c1nnsc1COCc1ccccc1`: the GI50 in the test on U-251, with EKVX, in the test with SF-539, in the test on OVCAR-3, with CCRF-CEM and in the test with DU-145 was > 100 µM (inactive) throughout. Besides, the GI50 is > 100 µM (inactive) in the test on LOX IMVI; over 100 µM in the test with HCT-15; > 100 µM (inactive) in the test with MDA-N; > 100 µM (inactive) with Hs-578T; > 100 µM (inactive) in the test on RPMI-8226; > 100 µM (inactive) with NCI-H522. For the same compound, the GI50 in the test on UACC-62, with MOLT-4, in the test on KM12, in the test with OVCAR-5, in the test on MDA-MB-231 and in the test on CAKI-1 was > 100 µM (inactive) each time.

Take `CCC(C)C1=C(O)[N+]2([O-])Oc3ccc(-c4c(O)c(O)c(-c5ccc(OC(C)=O)cc5)c(OC(C)=O)c4OC(C)=O)cc3OC2(C(C)CC)C(=O)N1O` (configuration not stated): the GI50 was > 50 µM (inactive) in the test on U-251; > 50 µM (inactive) with EKVX; > 50 µM (inactive) with SF-539; > 50 µM (inactive) in the test with OVCAR-3; 19.3 µM (inactive) and 19.2 µM (inactive) with CCRF-CEM; > 50 µM (inactive) with DU-145. Further, the GI50 is 38.3 µM (inactive) and 37.2 µM (inactive) with LOX IMVI; over 50 µM with HCT-15; 36.3 µM (inactive) and 24.3 µM (inactive) in the test on MDA-N; > 50 µM (inactive) in the test on Hs-578T; > 50 µM (inactive) and 33.8 µM (inactive) in the test with RPMI-8226; 14.4 µM (inactive) and 16.1 µM (inactive) in the test with NCI-H522. In addition, the GI50 in the test on UACC-62 is > 50 µM (inactive) and 31.3 µM (inactive); in the test with MOLT-4, 23.7 µM (inactive) and 14.4 µM (inactive); in the test on KM12, > 50 µM (inactive); in the test with OVCAR-5 it was > 50 µM (inactive); in the test on MDA-MB-231 it was > 50 µM (inactive); in the test on CAKI-1 it was > 50 µM (inactive).

In the case of `CC(C)=CC(=O)C[C@H]1C(=O)O[C@@H]2C[C@H]3C(C)=CC(=O)[C@@H](O)[C@]3(C)[C@H]3[C@@]4(O)OC[C@]32[C@@H]1[C@@H](C)[C@H]4O`, the GI50 in the test on U-251 is < 0.01 µM (active); in the test with EKVX it was 0.175 µM (active); in the test on SF-539 it was < 0.01 µM (active); with OVCAR-3 it was < 0.0146 µM (active); with CCRF-CEM it was < 0.01 µM (active); with DU-145, 0.0177 µM (active). The GI50 was < 0.01 µM (active) in the test with LOX IMVI; 0.0382 µM with HCT-15; < 0.0189 µM (active) with MDA-N; 0.029 µM (active) in the test on Hs-578T; < 0.01 µM (active) with RPMI-8226; 0.0313 µM (active) in the test on UACC-62. For the same compound, the GI50 in the test on NCI-H226 was < 0.01 µM (active); in the test on MOLT-4, < 0.01 µM (active); in the test on KM12 it was < 0.0169 µM (active); in the test with OVCAR-5 it was 0.0711 µM (active); with MDA-MB-231, 0.0454 µM (active); with CAKI-1 it was 0.0975 µM (active).

Turning to `CC1(C)N[PH]2(Nc3ccccc3O2)OC1=O`, the GI50 is 70.1 µM (inactive) in the test on U-251; 84.3 µM (inactive) in the test on EKVX; 66.5 µM (inactive) in the test on SF-539; > 100 µM (inactive) in the test on OVCAR-3; 41.2 µM (inactive) in the test on CCRF-CEM; > 100 µM (inactive) in the test on DU-145. Moreover, the GI50 in the test with LOX IMVI is 18.3 µM (inactive); with HCT-15, 64.9 µM; with MDA-N, 19.2 µM (inactive); in the test on Hs-578T, > 100 µM (inactive); in the test with RPMI-8226 it was 5.32 µM (inactive); with UACC-62 it was 18.6 µM (inactive). The GI50 in the test with NCI-H226 is 35.9 µM (inactive); with MOLT-4, 22.8 µM (inactive); in the test with KM12 it was > 100 µM (inactive); in the test with OVCAR-5, > 100 µM (inactive); in the test with MDA-MB-231, > 100 µM (inactive); with CAKI-1, 66.2 µM (inactive).

Consider `O=C1C/C(=C\O)C(=O)c2ccccc2N1`, for which the GI50 with U-251, in the test on EKVX, in the test with SF-539, with OVCAR-3, with CCRF-CEM and in the test on DU-145 was > 100 µM (inactive) each time. Besides, the GI50 in the test on LOX IMVI is > 100 µM (inactive); with HCT-15, over 100 µM; in the test with MDA-N it was > 100 µM (inactive); with Hs-578T, > 100 µM (inactive); in the test on NCI-H522, > 100 µM (inactive); in the test on UACC-62, > 100 µM (inactive). Moreover, the GI50 with NCI-H226, in the test with MOLT-4, in the test on KM12, in the test with OVCAR-5, with MDA-MB-231 and with CAKI-1 was > 100 µM (inactive) throughout.

Consider `COc1ccc(C(=C2C(=O)OC(=O)C2=C(C)C)c2ccc(OC)cc2)cc1`, for which the GI50 was 33.4 µM (inactive) in the test on U-251; 27 µM (inactive) in the test on EKVX; > 100 µM (inactive) in the test on SF-539; 22 µM (inactive) in the test with OVCAR-3; > 100 µM (inactive) in the test with DU-145; 34.4 µM (inactive) in the test on LOX IMVI. Besides, the GI50 was 51.9 µM in the test with HCT-15; > 100 µM (inactive) in the test with MDA-N; 95.5 µM (inactive) with Hs-578T; 28.8 µM (inactive) with RPMI-8226; 23.2 µM (inactive) with NCI-H522; > 100 µM (inactive) with UACC-62. Besides, the GI50 with NCI-H226 is > 100 µM (inactive); in the test with MOLT-4, 57.4 µM (inactive); in the test on KM12, 29.2 µM (inactive); in the test on OVCAR-5, 79.1 µM (inactive); in the test on MDA-MB-231, > 100 µM (inactive); in the test on CAKI-1, > 100 µM (inactive).

`COC(=O)CC(C#N)(OP1(=O)OC(c2ccccc2)C(C)N1C)c1ccccc1` (configuration not stated): the GI50 in the test with U-251 was 23.1 µM (inactive); in the test with EKVX, 21.7 µM (inactive); in the test with SF-539 it was 37.5 µM (inactive); in the test with OVCAR-3 it was 18.8 µM (inactive); in the test with CCRF-CEM it was 11.5 µM (inactive); in the test with DU-145, 32.4 µM (inactive). The GI50 in the test on LOX IMVI was 21 µM (inactive); in the test with HCT-15, 28.6 µM; in the test on MDA-N, 26.8 µM (inactive); with Hs-578T it was 30.3 µM (inactive); with RPMI-8226, 25.1 µM (inactive); in the test with NCI-H522, 59 µM (inactive). Further, the GI50 in the test with UACC-62 was 19.8 µM (inactive); in the test with MOLT-4 it was 25.5 µM (inactive); in the test with KM12 it was 20.6 µM (inactive); in the test with OVCAR-5 it was 27.4 µM (inactive); in the test with MDA-MB-231, 42.4 µM (inactive); with CAKI-1 it was 25.4 µM (inactive).

On to `CN(C)c1n/c(=N/Cc2ccccn2)ss1`, for which the GI50 with U-251 was > 10 µM (inactive); with EKVX it was > 10 µM (inactive); in the test on SF-539, > 10 µM (inactive); in the test with OVCAR-3 it was > 10 µM (inactive); with CCRF-CEM it was 1.24 µM (inactive); in the test on DU-145, > 10 µM (inactive). Further, the GI50 in the test with LOX IMVI is 2.51 µM (inactive); in the test with HCT-15 it was 9.68 µM; in the test with MDA-N, > 10 µM (inactive); in the test on Hs-578T, > 10 µM (inactive); in the test on RPMI-8226, 4.48 µM (inactive); in the test with UACC-62, > 10 µM (inactive). Besides, the GI50 in the test on NCI-H226 was > 10 µM (inactive); with MOLT-4, 1.78 µM (inactive); with KM12 it was > 9.57 µM (inactive); with OVCAR-5, 7.38 µM (inactive); with MDA-MB-231 it was > 10 µM (inactive); in the test on CAKI-1, > 7.94 µM (inactive).

On to `O=c1ccn(C2OC(CO)C(O)C2[Se]c2ccccc2)c(=O)[nH]1` (configuration not stated), for which the GI50 with U-251, with EKVX, with SF-539, in the test on OVCAR-3, in the test on CCRF-CEM and in the test with DU-145 was > 100 µM (inactive) in each case. Besides, the GI50 was > 100 µM (inactive) in the test on LOX IMVI; over 100 µM in the test on HCT-15; > 100 µM (inactive) in the test with MDA-N; > 100 µM (inactive) with Hs-578T; 99.1 µM (inactive) with NCI-H522; 0.353 µM (active) in the test on UACC-62. The GI50 in the test with NCI-H226, with MOLT-4, in the test with KM12, with OVCAR-5, with MDA-MB-231 and in the test with CAKI-1 was > 100 µM (inactive) throughout.

For the compound `COc1cccc(-c2nc(N)c(C#N)c3c2CCS(=O)(=O)c2ccc(C)cc2-3)c1`, the GI50 was 36.6 µM (inactive) in the test with U-251; 50.6 µM (inactive) in the test with EKVX; 33.6 µM (inactive) in the test with SF-539; 21 µM (inactive) in the test with OVCAR-3; 14.6 µM (inactive) in the test with CCRF-CEM; 37.6 µM (inactive) with DU-145. For the same compound, the GI50 is 31.4 µM (inactive) with LOX IMVI; 7.87 µM with HCT-15; 3.08 µM (inactive) with MDA-N; 13.3 µM (inactive) in the test with Hs-578T; 2.68 µM (inactive) in the test with NCI-H522; 17.7 µM (inactive) in the test on UACC-62. The GI50 in the test on NCI-H226 is > 51.5 µM (inactive); in the test on MOLT-4 it was 22.9 µM (inactive); with KM12, 7.85 µM (inactive); with OVCAR-5 it was > 100 µM (inactive); with MDA-MB-231 it was 21.8 µM (inactive); with CAKI-1, 9.98 µM (inactive).

(Values after ChEMBL document CHEMBL1201862, “PubChem BioAssay data set” (2004).)
